# In US20190002436A1, “RESPIRATORY SYNCYTIAL VIRUS INHIBITORS” (MEDIVIR AB, priority 2015, published 2019):
# System: RSV (Long)
# Assay: RSV cytopathic effect (CPE)-based viral replication assay
# Assay type: cell-based, respiratory syncytial virus (RSV)
# Conditions: human respiratory syncytial virus, HEp-2, 72 h, HEp-2 cells infected with RSV Long at MOI 0.015; 3 days at 37° C.; cell viability by CellTiter-Glo luminescence; read-out: EC50 (nm)
# Method in brief: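 HEp-2 cells, 2,500 per well in DMEM with 2% heat-inactivated FBS, treated with 10-point compound dilutions and infected with RSV Long at MOI 0.015. After 3 days at 37 °C, 5% CO2, viability read by CellTiter-Glo luminescence; EC50 derived from CPE data.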
row,Structure (SMILES),EC50 [nM]
1,"COC(=O)N1CCC(n2c(=O)n(Cc3ncc4ccccc4c3CCCCO)c3cc(F)c(F)cc32)CC1 [Example 14c, methyl 4-(5,6-difluoro-3-((4-(4-hydroxybutyl)isoquinolin-3-yl)methyl)-2-oxo-2,3-dihydro-1H-benzo[d]imidazol-1-yl)piperidine-1-carboxylate]",75
2,"COC(=O)N1CC2(C1)C(=O)N(Cc1ncc3ccccc3c1-c1ccc(C(N)C(F)(F)F)nc1)c1ccccc12 (stereo not shown) [Example 157b, methyl 1′-((4-(6-(1-amino-2,2,2-trifluoroethyl)pyridin-3-yl)isoquinolin-3-yl)methyl)-2′-oxospiro[azetidine-3,3′-indoline]-1-carboxylate]",4
3,CS(=O)(=O)N1CC2(C1)C(=O)N(Cc1ncc3ccccc3c1-c1cc(F)cc(F)c1)c1ccccc12 [Example 72],5.6
4,CS(=O)(=O)N1CCC2(CC1)C(=O)N(Cc1ncc3ccccc3c1-c1cnc(C(N)=O)cn1)c1cnccc12 [Example 2017],34
5,"CS(=O)(=O)N1CCC2(CC1)C(=O)N(Cc1ncc3ccccc3c1-c1ccc(C#N)nc1)c1cnccc12 [Example 66-1, 5-(3-((1-(Methylsulfonyl)-2′-oxospiro[piperidine-4,3′-pyrrolo[2,3-c]pyridin]-1′(2′H)-yl)methyl)isoquinolin-4-yl)picolinonitrile]",2.6
6,"COC(=O)N1CCC(n2c(=O)n(Cc3ncc4ccccc4c3CCCCO)c3cccc(Cl)c32)CC1 [Example 16, Methyl 4-(7-chloro-3-((4-(4-hydroxybutyl)isoquinolin-3-yl)methyl)-2-oxo-2,3-dihydro-1H-benzo[d]imidazol-1-yl)piperidine-1-carboxylate]",19
7,"NC1(C(=O)N2CCC3(CC2)C(=O)N(Cc2ncc4ccccc4c2CCCCO)c2cnccc23)CC1 [Example 39b, 1-(1-Aminocyclopropanecarbonyl)-1′-((4-(4-hydroxybutyl)isoquinolin-3-yl)methyl)spiro[piperidine-4,3′-pyrrolo[2,3-c]pyridin]-2′(1′H)-one]",35
8,"CN(C)C1(C(=O)N2CC3(C2)C(=O)N(Cc2ncc4ccccc4c2-c2ccc(C#N)nc2)c2ccccc23)CC1 [Example 62, 5-(3-((1-(1-(dimethylamino)cyclopropanecarbonyl)-2′-oxospiro[azetidine-3,3′-indolin]-1′-yl)methyl)isoquinolin-4-yl)picolinonitrile]",10
9,"COCCN1CC2(C1)C(=O)N(Cc1ncc3ccccc3c1-c1ccc(F)nc1)c1ccccc12 [Example 85c, 1′-((4-(6-Fluoropyridin-3-yl)isoquinolin-3-yl)methyl)-1-(2-methoxyethyl)spiro[azetidine-3,3′-indolin]-2′-one]",42
10,"O=C(OC1CC1)N1CCC(n2c(=O)n(Cc3ncc4ccccc4c3CCCCO)c3cnccc32)CC1 [Example 35, cyclopropyl 4-(3-((4-(4-hydroxybutyl)isoquinolin-3-yl)methyl)-2-oxo-2,3-dihydro-1H-imidazo[4,5-c]pyridin-1-yl)piperidine-1-carboxylate]",2.4
11,CC1(S(=O)(=O)N2CC3(C2)C(=O)N(Cc2ncc4ccccc4c2-c2ccc(C#N)nc2)c2ccccc23)CC1 [Example 61],4.4
12,"CS(=O)(=O)N1CCC2(CC1)C(=O)N(Cc1ncc3ccccc3c1-c1ccc(C(N)C(F)(F)F)nc1)c1cnccc12 (stereo not shown) [Example 158c, 1′-((4-(6-(1-amino-2,2,2-trifluoroethyl)pyridin-3-yl)isoquinolin-3-yl)methyl)-1-(methylsulfonyl)spiro[piperidine-4,3′-pyrrolo[2,3-c]pyridin]-2′(1′H)-one]",3
13,"Cc1noc(C)c1-c1c(CN2C(=O)C3(CCN(C(=O)C4(N)CC4)CC3)c3ccncc32)ncc2ccccc12 [Example 130c, 1-(1-Aminocyclopropanecarbonyl)-1′-((4-(3,5-dimethylisoxazol-4-yl)isoquinolin-3-yl)methyl)spiro[piperidine-4,3′-pyrrolo[2,3-c]pyridin]-2′(1′H)-one]",1000
14,NC1(C(=O)N2CCC3(CC2)C(=O)N(Cc2ncc4ccccc4c2-c2cnc(C(F)(F)F)s2)c2cnccc23)CC1 [Example 2028],13
15,CS(=O)(=O)N1CCC2(CC1)C(=O)N(Cc1ncc3cc(F)ccc3c1-c1ccncc1)c1cnccc12 [Example 2035],2.8
16,"CC(C)(O)C(=O)N1CC2(C1)C(=O)N(Cc1ncc3ccccc3c1-c1cccnc1)c1ccccc12 [Example 118, 1-(2-hydroxy-2-methylpropanoyl)-1′-((4-(pyridin-3-yl)isoquinolin-3-yl)methyl)spiro[azetidine-3,3′-indolin]-2′-one]",3.8
17,NC(=O)c1ccc(-c2c(CN3C(=O)C4(CCN(C(=O)[C@H]5CCCN5)CC4)c4ccncc43)ncc3ccccc23)cn1 [Example 2013],6.6

row,Structure (SMILES),EC50 [nM]
1,"CN(C)C(=O)c1ccc(-c2c(CN3C(=O)C4(CN(C(=O)C5(N)CC5)C4)c4ccccc43)ncc3ccccc23)cn1 [Example 121b, 5-(3-((1-(1-Aminocyclopropanecarbonyl)-2′-oxospiro[azetidine-3,3′-indolin]-1′-yl)methyl)isoquinolin-4-yl)-N,N-dimethylpicolinamide]",2.4
2,"CNC1(C(=O)N2CCC3(CC2)C(=O)N(Cc2ncc4ccccc4c2-c2ccc(C#N)nc2)c2cnccc23)CC1 [Example 67, 5-(3-((1-(1-(Methylamino)cyclopropanecarbonyl)-2′-oxospiro[piperidine-4,3′-pyrrolo[2,3-c]pyridin]-1′(2′H)-yl)methyl)isoquinolin-4-yl)picolinonitrile]",8.2
3,"O=c1n(Cc2ncc3ccccc3c2CCCCO)c2ccccc2n1CC(F)(F)F [Example 5c, 1-((4-(4-hydroxybutyl)isoquinolin-3-yl)methyl)-3-(2,2,2-trifluoroethyl)-1H-benzo[d]imidazol-2(3H)-one]",19
4,"COC(=O)N1CCC2(CC1)C(=O)N(Cc1ncc3ccccc3c1CCCS(C)(=O)=O)c1cnccc12 [Example 11c, Methyl 1′-((4-(3-(methylsulfonyl)propyl)isoquinolin-3-yl)methyl)-2′-oxo-1′,2′-dihydrospiro[piperidine-4,3′-pyrrolo[2,3-c]pyridine]-1-carboxylate]",88
5,"CS(=O)(=O)N1CC2(C1)C(=O)N(Cc1ncc3ccccc3c1-c1ccc(C(F)(F)F)cc1)c1ccccc12 [Example 79, 1-(Methylsulfonyl)-1′-((4-(4-(trifluoromethyl)phenyl)isoquinolin-3-yl)methyl)spiro[azetidine-3,3′-indolin]-2′-one]",8.7
6,"NCCC(=O)N1CCC2(CC1)C(=O)N(Cc1ncc3ccccc3c1-c1cccnc1)c1cnccc12 [Example 141, 1-(3-aminopropanoyl)-1′-((4-(pyridin-3-yl)isoquinolin-3-yl)methyl)spiro[piperidine-4,3′-pyrrolo[2,3-c]pyridin]-2′(1′H)-one]",11
7,"CS(=O)(=O)Nc1ccc(-c2c(CN3C(=O)C4(CN(C(N)=O)C4)c4ccccc43)ncc3ccccc23)cc1 [Example 117, 1′-((4-(4-(methylsulfonamido)phenyl)isoquinolin-3-yl)methyl)-2′-oxospiro[azetidine-3,3′-indoline]-1-carboxamide]",0.75
8,"N#Cc1ccc(-c2c(CN3C(=O)C4(CN(C(=O)OCCO)C4)c4ccccc43)ncc3ccccc23)cn1 [Example 64, 2-Hydroxyethyl 1′-((4-(6-cyanopyridin-3-yl)isoquinolin-3-yl)methyl)-2′-oxospiro[azetidine-3,3′-indoline]-1-carboxylate]",1.6
9,"COC(=O)N1CCC2(CC1)C(=O)N(Cc1ncc3cc(Cl)ccc3c1-c1cccnc1)c1cnccc12 [Example 164, Methyl 1′-((7-chloro-4-(pyridin-3-yl)isoquinolin-3-yl)methyl)-2′-oxo-1′,2′-dihydrospiro[piperidine-4,3′-pyrrolo[2,3-c]pyridine]-1-carboxylate]",1.6
10,"N#Cc1ccc(-c2c(CN3C(=O)C4(CN(C(=O)C5(N)CC5)C4)c4ccccc43)ncc3ccccc23)cn1 [Example 60c, 5-(3-((1-(1-Aminocyclopropanecarbonyl)-2′-oxospiro[azetidine-3,3′-indolin]-1′-yl)methyl)isoquinolin-4-yl)picolinonitrile]",25
11,CC(C)(C)NC(=O)N1CC2(C1)C(=O)N(Cc1ncc3ccccc3c1-c1ccc(C#N)nc1)c1ccccc12 [Example 81],1.4
12,CNC1(C(=O)N2CC3(C2)C(=O)N(Cc2ncc4ccccc4c2-c2ccc(NS(C)(=O)=O)cn2)c2ccccc23)CC1 [Example 2005],230
13,CS(=O)(=O)N1CC2(C1)C(=O)N(Cc1ncc3ccccc3c1-c1ccc(C#N)nc1)c1ccccc12 [Example 45],3
14,"NC(=O)N1CC2(C1)C(=O)N(Cc1ncc3ccccc3c1-c1ccc(S(N)(=O)=O)cc1)c1ccccc12 [Example 116b, 2′-oxo-1′-((4-(4-sulfamoylphenyl)isoquinolin-3-yl)methyl)spiro[azetidine-3,3′-indoline]-1-carboxamide]",1.3
15,"O=c1n(Cc2ncc3ccccc3c2CCCCF)c2cnccc2n1C1CC1 [Example 57, 1-Cyclopropyl-3-((4-(4-fluorobutyl)isoquinolin-3-yl)methyl)-1H-imidazo[4,5-c]pyridin-2(3H)-one]",3.4
16,"COC(=O)N1CC2(C1)C(=O)N(Cc1ncc3ccccc3c1-c1ccc(NS(C)(=O)=O)nc1)c1cnccc12 [Example 167d, methyl 1′-((4-(6-(methylsulfonamido)pyridin-3-yl)isoquinolin-3-yl)methyl)-2′-oxo-1′,2′-dihydrospiro[azetidine-3,3′-pyrrolo[2,3-c]pyridine]-1-carboxylate]",4.8

# Same assay, conditions: human respiratory syncytial virus, HEp-2, 72 h, read-out: EC50 (nm)
row,Structure (SMILES),EC50 [nM]
1,"COC(=O)N1CCC2(CC1)C(=O)N(Cc1ncc3ccccc3c1-c1ccc(C#N)nc1)c1cnccc12 [Example 13, Methyl 1′-((4-(6-cyanopyridin-3-yl)isoquinolin-3-yl)methyl)-2′-oxo-1′,2′-dihydrospiro[piperidine-4,3′-pyrrolo[2,3-c]pyridine]-1-carboxylate]",3
